Test results: patent US5587478A, “Sapphyrin multimers” (Board of Regents, The University of Texas System, priority 1995, dated 1996)
Entries after “also recorded” stand apart in the source; their conditions may differ. Read-outs that look alike come from different tables or passages of the source. One block for each compound: values may come before it.

How the values were obtained:
DNA = DNA binding of unmodified sapphyrin
[1] = Protonation state of sapphyrin; format: physicochemical
[2] = U-tube model membrane transport, 4-nitrophthalate; conditions: carrier 0.1 mM in dichloromethane; source 10 mM each of three acids, pH 7.2; receiving pH 7; 24-26 °C; error ±10%
Description: (§1) To illustrate the binding of dicarboxylate anions by sapphyrin dimers, transport studies were carried out utilizing a standard U-tube model membrane system. Transport experiments were performed using a glass U-tube at 24°-26° C. Conditions: Source phase: 1 mL of a 1:1:1 ratio of 4-nitrophthalic acid, 5-nitroisophthalic acid and nitroterephthalic acid (10 mM of each) at pH 7.2 (adjusted by the addition of NaOH). Membrane (6 mL); carrier (1a or 23): 0.1 mM in dichloromethane. Receiving phase: 1 mL of H2 O, pH 7.0. The release of the dicarboxylate dianions into the receiving phase was monitored as a function of time via HPLC product analysis achieved using adenosine or uridine as the internal standards. In all cases, control experiments were performed in the absence of carrier. Error is within ±10%.

[3] = U-tube model membrane transport, 5-nitroisophthalate; conditions: carrier 0.1 mM in dichloromethane; source 10 mM each of three acids, pH 7.2; receiving pH 7; 24-26 °C; error ±10%
Description: as §1

[4] = U-tube model membrane transport, nitroterephthalate
Description: as §1

[5] = U-tube model membrane transport of dicarboxylates, summary; conditions: neutral pH
Description: as §1

[6] = Binding constant titration in methanol; conditions: for Kd: binding constant, 1H NMR, methanol, 293 K, 23 as bis HCl salt
Excerpt: (§2) Quantitative assessments of dicarboxylate binding efficacy in methanol were made using standard spectroscopic techniques. In general, ^1 H NMR methods were employed, with the observed changes in the ^1 H NMR chemical shifts of the aromatic protons of the carboxyl-containing substrate (kept constant in the mM concentration range) being monitored as a function of increased receptor concentration. In some instances, well-resolved shifts could not be observed in the appropriate ^1 H NMR spectra. Here, either visible spectroscopic titration procedures were used or deuterated substrates were employed such that the binding process could be followed by ^2 H NMR.
(§3) More specifically, binding studies were effected by means of ^1 H NMR (General Electric QE-300), ^2 H NMR (Bruker AM-500) and Vis (Beckman DU 640) titrations and were carried out at 293 K. using methanol as the solvent. Methanol-d4 was used for the ^1 HNMR titrations and non-deuterated methanol was used for the ^2 H NMR analyses. For both sets of NMR titrations, the substrate concentration was held constant and the receptor concentration varied. The change in the chemical shifts of the aromatic hydrogen/deuterium atoms of the substrates were then followed and used as a way of monitoring, in a relative way, the concentration of the bound and unbound species. For the Vis titrations, the receptor concentration was held constant and the substrate concentration varied. There, the change in absorption of the Soret-like band of receptor 23 was followed. Receptor 23 was used in the form of its bis-HCl salt, 23-2HCl. This salt was prepared by washing a dichloromethane solution of 23 (in its free-base form) three times with independent portions of an aqueous pH 6 solution of HCl, followed by 1) drying over Na2 SO4, 2) evaporative removal of solvent and 3) drying in vacuo. Substrates were used as their trimethylammonium salts. They were prepared by dissolving the relevant dicarboxylic acid in methanol and then bubbling with trimethylamine gas for 10 min. […]

[7] = Binding constant titration in methanol; conditions: for Ka: methanol, 293 K, 23 as bis HCl salt
Excerpt: as §2, §3

[8] = Binding constant titration in methanol
Excerpt: as §2
(§4) More specifically, binding studies were effected by means of ^1 H NMR (General Electric QE-300), ^2 H NMR (Bruker AM-500) and Vis (Beckman DU 640) titrations and were carried out at 293 K. using methanol as the solvent. Methanol-d4 was used for the ^1 HNMR titrations and non-deuterated methanol was used for the ^2 H NMR analyses. For both sets of NMR titrations, the substrate concentration was held constant and the receptor concentration varied. The change in the chemical shifts of the aromatic hydrogen/deuterium atoms of the substrates were then followed and used as a way of monitoring, in a relative way, the concentration of the bound and unbound species. […]

[9] = Binding constant titration in methanol; remark: listed apart in the source
Excerpt: as §2, §4

[10] = Binding constant titration in methanol; remark: listed apart in the source
Excerpt: as §2, §4

[11] = Binding constant titration in methanol; conditions: for Kd: methanol, 293 K, 23 as bis HCl salt, read-out: K1, K2 (converted)
Excerpt: as §2, §3

[12] = Binding constant titration in methanol; remark: listed apart in the source
Excerpt: as §2, §4

[13] = Binding constant titration in methanol; remark: listed apart in the source
Excerpt: as §2, §4

[14] = Carboxylate binding, summary statements
Excerpt: as §2, §4

[15] = diprotonated form; acidic pH; cited from earlier work
[16] = relative to the worst bound substrate, oxalate
[17] = Vis spectroscopy, methanol, 293 K, 23 as bis HCl salt

- mode of DNA binding (DNA): not intercalation or groove binding
- Kd (DNA; unmodified sapphyrin, read-out: binding constant for DNA): ~1 µM
- pH range in which sapphyrin remains monoprotonated [1]: 3.5-10 pH
Compound: CCc1c(CC)c2cc3nc(cc4[nH]c(c(C)c4CC)c4[nH]c(cc5nc(cc1[nH]2)C(CCC(=O)N(CCO)CCO)=C5C)c(CC)c4C)C(C)=C3CCC(=O)N(CCO)CCO [sapphyrin]

- Kd ([6]; read-out: K1 (converted)): 3230 µM
- Kd ([6]; read-out: K2 (converted)): 3570 µM
- Selectivity [6, 16]: 1.2
- Ka ([7]; Vis spectroscopy): 2 500 M^-1
- Ka ([7]; first value, footnote printed c): 2 400 M^-1
- Selectivity [7, 16]: 9.4
- Ka [8, 17]: 5 300 M^-1
- Selectivity [8, 16]: 20.4
- Ka ([9]; 2H NMR, methanol, 293 K, 23 as bis HCl salt): 4 600 M^-1
- Selectivity [9, 16]: 17.7
- Ka [10, 17]: 9 100 M^-1
- Selectivity [10, 16]: 35.0
- Kd ([11]; 1H NMR): 725 µM
- Kd ([11]; 2H NMR): 654 µM
- Selectivity [11, 16]: 5.6
- Ka [12, 17]: 260 M⁻¹
- Selectivity [12, 16]: 1
- Ka [13, 17]: 450 M⁻¹
- Selectivity [13, 16]: 1.7
Compound: CCC1=C(C)c2cc3[nH]c(c(C)c3CC)c3[nH]c(cc4nc(cc5[nH]c(cc1n2)c(C)c5CCC(=O)NCCCNC(=O)CCc1c(C)c2cc5nc(cc6[nH]c(c(C)c6CC)c6[nH]c(cc7nc(cc1[nH]2)C(CC)=C7C)c(CC)c6C)C(C)=C5CC)C(CC)=C4C)c(CC)c3C [Compound 23, 1,3-bis[12-aminocarbonylethyl-(3,8,17,22-tetraethyl-2,7,13,18,23-pentamethylsapphyrin)]propane]
- Initial rate of transport kT, ortho [2]: 2.190 10^-10 mol/cm^2 · h
- Initial rate of transport kT, meta [3]: 2.926 10^-10 mol/cm^2 · h
- Initial rate of transport kT, para ([4]; carrier 0.1 mM in dichloromethane, source 10 mM each of three acids, pH 7.2, receiving pH 7, 24-26 °C, error ±10%): 6.803 10^-10 mol/cm^2 · h
- Transport rate of nitroterephthalate relative to 4-nitrophthalate ([4]; direct competition experiments): three times faster
- Carrier efficacy for dicarboxylates [5]: acts as an efficient carrier for a range of dicarboxylates
- Affinity and selectivity for carboxylates (in words) [14]: little affinity for monocarboxylate-derived substrates; also recorded: very good affinities for certain dicarboxylates; also recorded: preference for linear over bent substrates and aromatic over aliphatic substrates

Compound: CCC1=C(C)c2cc3[nH]c(c(C)c3CC)c3[nH]c(cc4nc(cc5[nH]c(cc1n2)c(CC)c5CC)C(CC)=C4C)c(CC)c3C [3,8,12,13,17,22-hexaethyl-2,7,18,23-tetramethylsapphyrin]
- carrier for through-membrane transport [15]: efficient carrier
